US20250136934A1, “PRODUCTION OF INDUCED MIDBRAIN DOPAMINERGIC PROGENITOR CELLS FROM PLURIPOTENT STEM CELLS” (NUWACELL BIOTECHNOLOGIES CO., LTD., priority 2023, published 2025)

Test system: EN1 and LMX1A
Assay: qRT-PCR analysis of ventral midbrain markers EN1 and LMX1A in imDAP cells
Assay type: cell-based, human
Details: 3-step protocol
Procedure: (1) qRT-PCR • 1. For qRT-PCR analysis of mRNA gene expression, RNA should be harvested from at least 2×10^6 cells. • 2. Harvest cells, add 350 μl of buffer RLT+1% (vol/vol) β-mercaptoethanol to the well, transfer the lysate to a 1.5 ml tube, and put it immediately on ice. • 3. Perform RNA extraction using the Tiangen Kit (DP430) and following the manufacturer's protocol ‘Purification of total RNA from animal and human cells’. • 4. When the RNA extraction was completed, determine the RNA concentration using a Nanodrop instrument. • 5. Perform the first-strand cDNA synthesis reaction with 1 μg of RNA using the HiScript™ II Q RT SuperMIX for qPCR (+gDNA wiper) Kit (Vazyme, #R223-01) for RT-qPCR. Follow the manufacturer's ‘First-Strand cDNA Synthesis’ protocol. This reaction would yield a 20 μl product. • 6. Dilute 10 μl cDNA product in 80 μl of nuclease-free water. • 7. Pipette the diluted cDNA product (1 μl), Sybr green master mix (5 μl, Transgen, #AQ131) and 0.95 μM reverse/forward primer mix (4 μl) into a 384-well PCR plate in triplicate, either manually or using an automated pipetting robot. The complete primer panel included the target genes and the housekeeping gene (RPL13A). In the analysis, the expression level of gene was determined by using a sample of undifferentiated hPSCs as control. • 8. Analyze the samples by running a quantitative PCR on the LightCycler 480 instrument using a 40x cycle two-step protocol with a 60° C., 60 sec annealing/elongation step and a 95° C., 30 sec denaturation step. The average CT value from the three technical replicates was used for calculation of relative gene expression using the ΔΔCT method. […]
On Day-1, EB formation (Stage 1) was carried out by dissociating hiPSCs (Nuwacell) to form a single-cell suspension and resuspending it in Epic medium (Nuwacell, #RP01001) containing 10 μM Blebbistatin (MCE, #HY-13441) in T25 flasks on a belly dancer and culturing the cells overnight. […] On Day 16 (at the end of S2-2), imDAP cells were collected and analyzed by qRT-PCR assay for ventral midbrain marker EN1 and LMX1A. […]

Question: What does the source list for Cc1cnc(-c2cnc(NCCNc3ccc(C#N)cn3)nc2-c2ccc(Cl)cc2Cl)[nH]1 [CHIR, CHIR99021]?
Answer: expression levels of EN1 and LMX1A (CHIR 5 μM and 7.5 μM compared to 10 μM): better results; expression levels of EN1 and LMX1A (CHIR 7.5 μM Stage 2-2 from Day 3 to Day 6 versus Day 3 to Day 10): comparable; expression levels of EN1 and LMX1A (high CHIR 5, 7.5 or 10 μM Day 3 to Day 10, relative to the 2-step protocol): increased
